Results reported in ChEMBL document CHEMBL1201862, “PubChem BioAssay data set” (2004).
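Results reflect a 48-hour exposure of cells in 96-well plates to compound at five concentrations. Abbreviation: GI50, concentration required for 50% inhibition of growth.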 The source made the active and inactive calls. Cut-off read from the data, not from the text of the source: active = GI50 up to about 1.1 µM and inactive = higher.

Experiments:
Assay in all cases: NCI anticancer screen, dose series, 48 h
786-0 = tested on: 786-0
A498 = tested on: A498
A549 = tested on: A549
ACHN = tested on: ACHN
CAKI-1 = tested on: CAKI-1
CCRF-CEM = tested on: CCRF-CEM
COLO 205 = tested on: COLO 205
DLD-1 = tested on: DLD-1
DMS-114 = tested on: DMS-114
DMS-273 = tested on: DMS-273
EKVX = tested on: EKVX
HCC 2998 = tested on: HCC 2998
HCT-116 = tested on: HCT-116
HCT-15 = tested on: HCT-15
HL-60 = tested on: HL-60
HOP-18 = tested on: HOP-18
HOP-62 = tested on: HOP-62
HOP-92 = tested on: HOP-92
HT-29 = tested on: HT-29
IGROV-1 = tested on: IGROV-1
K562 = tested on: K562
KM-20L2 = tested on: KM-20L2
KM12 = tested on: KM12
LXFL 529 = tested on: LXFL 529
M19-MEL = tested on: M19-MEL
MOLT-4 = tested on: MOLT-4
NCI-H23 = tested on: NCI-H23
NCI-H460 = tested on: NCI-H460
OVCAR-3 = tested on: OVCAR-3
OVCAR-4 = tested on: OVCAR-4
OVCAR-8 = tested on: OVCAR-8
RPMI-8226 = tested on: RPMI-8226
RXF 393 = tested on: RXF 393
RXF 631 = tested on: RXF 631
SF-295 = tested on: SF-295
SF-539 = tested on: SF-539
SK-MEL-28 = tested on: SK-MEL-28
SK-MEL-2 = tested on: SK-MEL-2
SK-OV-3 = tested on: SK-OV-3
SN12C = tested on: SN12C
SNB-19 = tested on: SNB-19
SNB-75 = tested on: SNB-75
SNB-78 = tested on: SNB-78
SR = tested on: SR
SW-620 = tested on: SW-620
U-251 = tested on: U-251
UACC-257 = tested on: UACC-257
UACC-62 = tested on: UACC-62
UO-31 = tested on: UO-31
XF498 = tested on: XF498
LOX IMVI = tested on: LOX IMVI
M14 = tested on: M14
Malme-3M = tested on: Malme-3M
NCI-H226 = tested on: NCI-H226
NCI-H522 = tested on: NCI-H522
OVCAR-5 = tested on: OVCAR-5
SF-268 = tested on: SF-268
SK-MEL-5 = tested on: SK-MEL-5
TK-10 = tested on: TK-10

Structure (SMILES): COc1ccc([C@@H]2OC(=O)C3C2C(=O)O[C@H]3c2ccc(OC)cc2)cc1 (some centres not stated)
- GI50 (786-0): > 100 µM (inactive)
- GI50 (A498): > 100 µM (inactive)
- GI50 (A549): > 100 µM (inactive)
- GI50 (ACHN): > 100 µM (inactive)
- GI50 (CAKI-1): > 100 µM (inactive)
- GI50 (CCRF-CEM): > 100 µM (inactive)
- GI50 (COLO 205): > 100 µM (inactive)
- GI50 (DLD-1): > 100 µM (inactive)
- GI50 (DMS-114): > 100 µM (inactive)
- GI50 (DMS-273): > 100 µM (inactive)
- GI50 (EKVX): > 100 µM (inactive)
- GI50 (HCC 2998): > 100 µM (inactive)
- GI50 (HCT-116): > 100 µM (inactive)
- GI50 (HCT-15): > 100 µM
- GI50 (HL-60): > 100 µM (inactive)
- GI50 (HOP-18): > 100 µM (inactive)
- GI50 (HOP-62): > 100 µM (inactive)
- GI50 (HOP-92): 0.209 µM (active)
- GI50 (HT-29): > 100 µM (inactive)
- GI50 (IGROV-1): > 100 µM (inactive)
- GI50 (K562): > 100 µM (inactive)
- GI50 (KM-20L2): > 100 µM (inactive)
- GI50 (KM12): > 100 µM (inactive)
- GI50 (LXFL 529): > 100 µM (inactive)
- GI50 (M19-MEL): > 100 µM (inactive)
- GI50 (MOLT-4): > 100 µM (inactive)
- GI50 (NCI-H23): > 100 µM (inactive)
- GI50 (NCI-H460): > 100 µM (inactive)
- GI50 (OVCAR-3): > 100 µM (inactive)
- GI50 (OVCAR-4): > 100 µM (inactive)
- GI50 (OVCAR-8): > 100 µM (inactive)
- GI50 (RPMI-8226): > 100 µM (inactive)
- GI50 (RXF 393): 76.4 µM (inactive)
- GI50 (RXF 631): > 100 µM (inactive)
- GI50 (SF-295): > 100 µM (inactive)
- GI50 (SF-539): > 100 µM (inactive)
- GI50 (SK-MEL-28): > 100 µM (inactive)
- GI50 (SK-MEL-2): > 100 µM (inactive)
- GI50 (SK-OV-3): > 100 µM (inactive)
- GI50 (SN12C): > 100 µM (inactive)
- GI50 (SNB-19): > 100 µM (inactive)
- GI50 (SNB-75): > 100 µM (inactive)
- GI50 (SNB-78): > 100 µM (inactive)
- GI50 (SR): > 100 µM (inactive)
- GI50 (SW-620): > 100 µM (inactive)
- GI50 (U-251): > 100 µM (inactive)
- GI50 (UACC-257): > 100 µM (inactive)
- GI50 (UACC-62): > 100 µM (inactive)
- GI50 (UO-31): > 100 µM (inactive)
- GI50 (XF498): > 100 µM (inactive)

Structure (SMILES): ClCc1ccc(C2OCCO2)cc1
- GI50 (786-0): 23.3 µM (inactive)
- GI50 (A498): 20.8 µM (inactive)
- GI50 (A549): > 51.4 µM (inactive)
- GI50 (ACHN): > 42.4 µM (inactive)
- GI50 (CCRF-CEM): > 37.7 µM (inactive)
- GI50 (COLO 205): 19.1 µM (inactive)
- GI50 (DLD-1): 17.2 µM (inactive)
- GI50 (DMS-114): > 24 µM (inactive)
- GI50 (DMS-273): 18.3 µM (inactive)
- GI50 (EKVX): > 43.2 µM (inactive)
- GI50 (HCC 2998): 17.8 µM (inactive)
- GI50 (HCT-116): > 35.6 µM (inactive)
- GI50 (HCT-15): 16.7 µM
- GI50 (HL-60): 3.36 µM (inactive)
- GI50 (HOP-18): 37.5 µM (inactive)
- GI50 (HOP-62): 24.9 µM (inactive)
- GI50 (HOP-92): 18.8 µM (inactive)
- GI50 (HT-29): 15.9 µM (inactive)
- GI50 (IGROV-1): > 72.4 µM (inactive)
- GI50 (K562): > 31.6 µM (inactive)
- GI50 (KM-20L2): > 45.9 µM (inactive)
- GI50 (KM12): 12.8 µM (inactive)
- GI50 (LOX IMVI): 7.23 µM (inactive)
- GI50 (LXFL 529): 17.1 µM (inactive)
- GI50 (M14): 13.6 µM (inactive)
- GI50 (M19-MEL): 14 µM (inactive)
- GI50 (MOLT-4): 13.8 µM (inactive)
- GI50 (Malme-3M): 20.3 µM (inactive)
- GI50 (NCI-H226): 16.9 µM (inactive)
- GI50 (NCI-H23): 12.2 µM (inactive)
- GI50 (NCI-H460): 19.2 µM (inactive)
- GI50 (NCI-H522): 14.8 µM (inactive)
- GI50 (OVCAR-3): 22.3 µM (inactive)
- GI50 (OVCAR-5): > 48.9 µM (inactive)
- GI50 (OVCAR-8): 17.5 µM (inactive)
- GI50 (RPMI-8226): 21.4 µM (inactive)
- GI50 (RXF 393): > 45.7 µM (inactive)
- GI50 (RXF 631): > 100 µM (inactive)
- GI50 (SF-268): > 100 µM (inactive)
- GI50 (SF-295): 17.9 µM (inactive)
- GI50 (SF-539): > 42.3 µM (inactive)
- GI50 (SK-MEL-28): > 40.7 µM (inactive)
- GI50 (SK-MEL-2): 21.1 µM (inactive)
- GI50 (SK-MEL-5): 24.8 µM (inactive)
- GI50 (SK-OV-3): 46.9 µM (inactive)
- GI50 (SN12C): 16.6 µM (inactive)
- GI50 (SNB-19): > 43 µM (inactive)
- GI50 (SNB-75): 22.4 µM (inactive)
- GI50 (SNB-78): 14.4 µM (inactive)
- GI50 (SR): 11.1 µM (inactive)
- GI50 (SW-620): 16.8 µM (inactive)
- GI50 (TK-10): > 49 µM (inactive)
- GI50 (U-251): 12.2 µM (inactive)
- GI50 (UACC-257): 14.5 µM (inactive)
- GI50 (UACC-62): > 36.6 µM (inactive)
- GI50 (UO-31): > 40.7 µM (inactive)
- GI50 (XF498): 18.8 µM (inactive)
